Test results from US20210283139A1, “BIFUNCTIONAL MOLECULES FOR TARGETING UCHL5” (AMPHISTA THERAPEUTICS LTD, priority 2018, published 2021).

Columns and labels:
Assay type in all cases: cell-based
Brd4 (L) [1] = molecular target: T1, Brd4 (L) (Homo sapiens, UniProt O60885); assay: Concentration-dependent BET degradation, immunoblot, HeLa cells; conditions: 6 h treatment, 1 nM-10 μM; for Dmax: read-out: Dmax (%) maximum degradation observed
T1 construct: endogenous in cells; host or cells: HEK293, HeLa
Protocol: (§1) Cell culture. HeLa (CCL-2) and HEK293 (CRL-1573) cells were purchased from ATCC and cultured in DMEM medium (Gibco) supplemented with 10% FBS, 100 μg/mL penicillin/streptomycin and L-glutamine. Cells were grown at 37° C. and 5% CO2, and were kept no longer than 30 passages. All cell lines were routinely tested for mycoplasma contamination using MycoAlert kit from Lonza.
(§2) Immunoblotting. proteins were separated by SDS-PAGE on NuPage 4-12% Bis-Tris gels, followed by transfer to Amersham Protran 0.45 NC nitrocellulose membrane (GE Healthcare) using wet transfer. Membranes were blocked using 5% w/v milk in Tris-buffered saline (TBS) with 0.1% Tween-20. Blots were probed (overnight at 4° C.) using anti-Brd2 (Abcam ab139690, 1:2,000 dilution), anti-Brd3 (Abcam ab50818, 1:500 dilution), and anti-Brd4 (Abcam ab128874, 1:1,000 dilution) primary antibodies, as appropriate. The next day, blots were washed with TBST and incubated (1 hr at RT) with anti-Tubulin hFAB-rhodamine (BioRad, 12004166) primary antibody, and either anti-rabbit IRDye 800CW (Licor 1:10,000 dilution) or anti-mouse IRDye 800CW (Licor 1:10,000 dilution) secondary antibody. Blots were developed using a Bio-Rad ChemiDoc MP Imaging System, and band quantification was performed using Image Studio software (LiCor). Band intensities were normalized to the tubulin loading control and reported as % of the average 0.1% DMSO vehicle intensity. Degradation data was plotted and analysed using Prism (Graphpad, version 8).
(§3) HeLa (5×10^5) and HEK293 (1×10^6) cells were seeded in standard 6-well plates (2 mL medium) overnight before treatment with compounds at the desired concentration (1 nM-10 μM), with a final DMSO concentration of 0.1% v/v. After 6 h treatment time, cells were washed with DPBS (Gibco) and lysed using 85 μL RIPA buffer (Sigma-Aldrich) supplemented with cOmplete Mini EDTA-free protease inhibitor cocktail (Roche) and benzonase. Lysates were clarified by centrifugation (20,000g, 10 min, 4° C.) and the total protein content of the supernatant was quantified using a Bradford colorimetric assay. Samples were prepared using equal amounts of total protein and LDS sample buffer (Invitrogen.
(§4) Representative blots in FIG. 3 show depletion of Brd2, Brd3 and Brd4 protein levels following treatment with increasing concentrations of representative compounds. Band intensities were normalized to the β-tubulin loading control and reported as % of the average 0.1% DMSO vehicle intensity, with each point representing mean±SEM of two independent experiments (n=2). Degradation data was plotted and analysed using Prism (Graphpad, version 8)

Brd4 (S) [2] = molecular target: T2, Brd4 (S) (Homo sapiens, UniProt O60885); assay: as above; conditions: 6 h treatment, 1 nM-10 μM; for Dmax: read-out: Dmax (%) maximum degradation observed
T2 construct: endogenous in cells; host or cells: HEK293, HeLa
Protocol: as §1, §2, §3, §4

Brd2 [3] = molecular target: T3, Brd2 (Homo sapiens, UniProt P25440); assay: Time-dependent BET degradation, immunoblot, HeLa cells; set-up: endogenous in cells; host or cells: HeLa; conditions: Brd2, 1 μM, timecourse 0-8 h
Protocol: as §1, §2
as §3, with “(3×10^5)” for “(5×10^5)”, “(0.5×10^6)” for “(1×10^6)”, “1 μM concentration,” for “the desired concentration (1 nM-10 μM),”, “incubation for the desired time (0-8 h),” for “6 h treatment time,”, “(20,000 g,” for “(20,000g,”, “(Invitrogen).” for “(Invitrogen.”
(§5) Representative blots in FIG. 4 show depletion of Brd2, Brd3 and Brd4 protein levels following 1 μM treatment at various time points with representative compounds. Band intensities were normalized to the β-tubulin loading control and reported as % of the average 0.1% DMSO vehicle intensity, with each point representing mean±SEM of two independent experiments (n=2). Degradation data was plotted and analysed using Prism (Graphpad, version 8).
(§6) T½ (h) is the time required to deplete 50% of the protein relative to DMSO

Brd3 [4] = molecular target: T4, Brd3 (Homo sapiens, UniProt Q15059); assay: as above; set-up: endogenous in cells; host or cells: HeLa; conditions: Brd3, 1 μM, timecourse 0-8 h
Protocol: as §1, §2
as §3, with “(3×10^5)” for “(5×10^5)”, “(0.5×10^6)” for “(1×10^6)”, “1 μM concentration,” for “the desired concentration (1 nM-10 μM),”, “incubation for the desired time (0-8 h),” for “6 h treatment time,”, “(20,000 g,” for “(20,000g,”, “(Invitrogen).” for “(Invitrogen.”
as §5, §6

Brd2 [5] = molecular target: T3, Brd2; assay: Concentration-dependent BET degradation, immunoblot, HEK293 cells; set-up: endogenous in cells; host or cells: HEK293; conditions: HEK293, Brd2, 6 h treatment, 1 nM-10 μM; for Dmax: read-out: Dmax (%) maximum degradation observed
Protocol: as §1, §2, §3, §4

Brd3 [6] = molecular target: T4, Brd3; assay: as above; set-up: endogenous in cells; host or cells: HEK293; conditions: HEK293, Brd3, 6 h treatment, 1 nM-10 μM; for Dmax: read-out: Dmax (%) maximum degradation observed
Protocol: as §1, §2, §3, §4

Brd4 (L) [7] = molecular target: T1, Brd4 (L); assay: as above; conditions: 6 h treatment, 1 nM-10 μM; for Dmax: read-out: Dmax (%) maximum degradation observed
Protocol: as §1, §2, §3, §4

Brd4 (S) [8] = molecular target: T2, Brd4 (S); assay: as above; conditions: 6 h treatment, 1 nM-10 μM; for Dmax: read-out: Dmax (%) maximum degradation observed
Protocol: as §1, §2, §3, §4

Brd4 (L) [9] = molecular target: T1, Brd4 (L); assay: Time-dependent BET degradation, immunoblot, HeLa cells; set-up: dose or concentration left out as unconfirmed; conditions: timecourse 0-8 h
Protocol: as §1, §2
as §3, with “(3×10^5)” for “(5×10^5)”, “(0.5×10^6)” for “(1×10^6)”, “1 μM concentration,” for “the desired concentration (1 nM-10 μM),”, “incubation for the desired time (0-8 h),” for “6 h treatment time,”, “(20,000 g,” for “(20,000g,”, “(Invitrogen).” for “(Invitrogen.”
as §5, §6

Brd4 (S) [10] = molecular target: T2, Brd4 (S); assay: as above; set-up: dose or concentration left out as unconfirmed; conditions: timecourse 0-8 h
Protocol: as §1, §2
as §3, with “(3×10^5)” for “(5×10^5)”, “(0.5×10^6)” for “(1×10^6)”, “1 μM concentration,” for “the desired concentration (1 nM-10 μM),”, “incubation for the desired time (0-8 h),” for “6 h treatment time,”, “(20,000 g,” for “(20,000g,”, “(Invitrogen).” for “(Invitrogen.”
as §5, §6

Brd2 [11] = molecular target: T3, Brd2; assay: Concentration-dependent BET degradation, immunoblot, HeLa cells; set-up: endogenous in cells; host or cells: HeLa; conditions: Brd2, 6 h treatment, 1 nM-10 μM; for Dmax: read-out: Dmax (%) maximum degradation observed
Protocol: as §1, §2, §3, §4

Brd3 [12] = molecular target: T4, Brd3; assay: as above; set-up: endogenous in cells; host or cells: HeLa; conditions: Brd3, 6 h treatment, 1 nM-10 μM; for Dmax: read-out: Dmax (%) maximum degradation observed
Protocol: as §1, §2, §3, §4

Brd4 (L) [13] = molecular target: T1, Brd4 (L); assay: Time-dependent BET degradation, immunoblot, HEK293 cells; set-up: dose or concentration left out as unconfirmed; conditions: timecourse 0-8 h
Protocol: as §1, §2
as §3, with “(3×10^5)” for “(5×10^5)”, “(0.5×10^6)” for “(1×10^6)”, “1 μM concentration,” for “the desired concentration (1 nM-10 μM),”, “incubation for the desired time (0-8 h),” for “6 h treatment time,”, “(20,000 g,” for “(20,000g,”, “(Invitrogen).” for “(Invitrogen.”
as §5, §6

Brd4 (S) [14] = molecular target: T2, Brd4 (S); assay: as above; set-up: dose or concentration left out as unconfirmed; conditions: timecourse 0-8 h
Protocol: as §1, §2
as §3, with “(3×10^5)” for “(5×10^5)”, “(0.5×10^6)” for “(1×10^6)”, “1 μM concentration,” for “the desired concentration (1 nM-10 μM),”, “incubation for the desired time (0-8 h),” for “6 h treatment time,”, “(20,000 g,” for “(20,000g,”, “(Invitrogen).” for “(Invitrogen.”
as §5, §6

Brd2 [15] = molecular target: T3, Brd2; assay: as above; set-up: endogenous in cells; host or cells: HEK293; conditions: HEK293, Brd2, 1 μM, timecourse 0-8 h
Protocol: as §1, §2
as §3, with “(3×10^5)” for “(5×10^5)”, “(0.5×10^6)” for “(1×10^6)”, “1 μM concentration,” for “the desired concentration (1 nM-10 μM),”, “incubation for the desired time (0-8 h),” for “6 h treatment time,”, “(20,000 g,” for “(20,000g,”, “(Invitrogen).” for “(Invitrogen.”
as §5, §6

Brd3 [16] = molecular target: T4, Brd3; assay: as above; set-up: endogenous in cells; host or cells: HEK293; conditions: HEK293, Brd3, 1 μM, timecourse 0-8 h
Protocol: as §1, §2
as §3, with “(3×10^5)” for “(5×10^5)”, “(0.5×10^6)” for “(1×10^6)”, “1 μM concentration,” for “the desired concentration (1 nM-10 μM),”, “incubation for the desired time (0-8 h),” for “6 h treatment time,”, “(20,000 g,” for “(20,000g,”, “(Invitrogen).” for “(Invitrogen.”
as §5, §6

T4 sequence (Q15059 whole entry): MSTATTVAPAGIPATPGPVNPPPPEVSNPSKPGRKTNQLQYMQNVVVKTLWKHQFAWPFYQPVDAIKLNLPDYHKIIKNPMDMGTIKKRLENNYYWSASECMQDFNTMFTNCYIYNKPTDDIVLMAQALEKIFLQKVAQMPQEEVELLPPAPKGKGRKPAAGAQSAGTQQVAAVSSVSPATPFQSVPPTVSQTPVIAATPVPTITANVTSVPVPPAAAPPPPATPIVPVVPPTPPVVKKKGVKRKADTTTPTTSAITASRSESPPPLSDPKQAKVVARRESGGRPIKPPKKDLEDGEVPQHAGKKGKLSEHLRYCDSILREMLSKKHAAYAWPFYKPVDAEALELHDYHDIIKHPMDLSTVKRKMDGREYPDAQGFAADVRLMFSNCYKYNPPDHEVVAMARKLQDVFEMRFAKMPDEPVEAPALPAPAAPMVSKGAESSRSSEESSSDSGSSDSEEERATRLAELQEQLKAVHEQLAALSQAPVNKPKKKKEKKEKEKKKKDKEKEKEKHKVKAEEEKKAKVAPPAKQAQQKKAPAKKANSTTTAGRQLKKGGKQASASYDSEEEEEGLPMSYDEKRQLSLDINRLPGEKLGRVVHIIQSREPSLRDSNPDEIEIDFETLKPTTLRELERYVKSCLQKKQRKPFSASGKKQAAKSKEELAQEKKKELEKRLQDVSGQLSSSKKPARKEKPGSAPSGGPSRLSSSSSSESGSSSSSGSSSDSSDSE
T3 sequence (P25440 whole entry): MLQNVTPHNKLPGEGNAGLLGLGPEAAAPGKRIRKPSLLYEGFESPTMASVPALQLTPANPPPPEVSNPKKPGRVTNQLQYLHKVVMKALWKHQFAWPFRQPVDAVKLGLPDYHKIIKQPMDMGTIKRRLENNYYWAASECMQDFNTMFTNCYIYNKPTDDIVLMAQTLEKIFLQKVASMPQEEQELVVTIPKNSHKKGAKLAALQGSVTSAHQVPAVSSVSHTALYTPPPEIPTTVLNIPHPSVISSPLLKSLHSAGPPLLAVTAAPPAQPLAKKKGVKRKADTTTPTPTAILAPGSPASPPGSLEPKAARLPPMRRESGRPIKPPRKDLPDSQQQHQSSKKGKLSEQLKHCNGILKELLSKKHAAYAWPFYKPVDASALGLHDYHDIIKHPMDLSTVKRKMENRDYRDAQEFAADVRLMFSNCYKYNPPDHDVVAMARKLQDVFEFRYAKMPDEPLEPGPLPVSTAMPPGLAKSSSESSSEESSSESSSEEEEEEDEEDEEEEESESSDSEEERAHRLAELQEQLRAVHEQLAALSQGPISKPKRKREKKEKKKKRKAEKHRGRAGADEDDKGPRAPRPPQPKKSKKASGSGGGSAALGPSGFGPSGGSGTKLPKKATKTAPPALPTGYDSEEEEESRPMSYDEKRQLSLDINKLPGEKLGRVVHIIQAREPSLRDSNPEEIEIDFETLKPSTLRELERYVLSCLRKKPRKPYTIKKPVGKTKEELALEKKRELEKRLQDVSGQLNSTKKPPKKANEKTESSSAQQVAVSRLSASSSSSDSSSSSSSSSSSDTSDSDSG

Structure (SMILES) | DC50 (Brd4 (L) [1]) | Dmax (Brd4 (L) [1]) | DC50 (Brd4 (S) [2]) | Dmax (Brd4 (S) [2]) | Dmax at 1 µM (Brd2 [3]) | Dmax at 1 µM (Brd3 [4]) | DC50 (Brd2 [5]) | Dmax (Brd2 [5]) | DC50 (Brd3 [6]) | Dmax (Brd3 [6]) | DC50 (Brd4 (L) [7]) | Dmax (Brd4 (L) [7]) | DC50 (Brd4 (S) [8]) | Dmax (Brd4 (S) [8]) | Dmax (Brd4 (L) [9]) | Dmax (Brd4 (S) [10]) | DC50 (Brd2 [11]) | Dmax (Brd2 [11]) | DC50 (Brd3 [12]) | Dmax (Brd3 [12]) | other results
CCCC(NC(=O)/C(C#N)=C/c1cccc(Br)n1)c1ccc(OCC=NOCC(=O)NCCOCCNC(=O)c2ccc3c(c2)[C@H](Nc2ccc(Cl)cc2)C[C@H](C)N3C(C)=O)cc1 (some centres unmarked) [Example 05IB1] | 51 to 500 nM | 26 to 50% | ≤ 50 nM | ≥ 71% | 100% | 100% | ≤ 50 nM | 51 to 70% | ≤ 50 nM | ≥ 71% | ≤ 50 nM | ≥ 71% | ≤ 50 nM | ≥ 71% | 100% | 100% | 51 to 500 nM | ≤ 25% | ≤ 50 nM | 26 to 50% | Dmax (Brd4 (L) [13]): 100%; Dmax (Brd4 (S) [14]): 100%; Dmax at 1 µM (Brd2 [15]): 100%; Dmax at 1 µM (Brd3 [16]): 100%
CCCC(NC(=O)/C(C#N)=C/c1cccc(Br)n1)c1ccc(OCC=NOCC(=O)NCCOCCOCCOCCNC(=O)c2ccc3c(c2)[C@H](Nc2ccc(Cl)cc2)C[C@H](C)N3C(C)=O)cc1 (some centres unmarked) [Example 05IB2] | 51 to 500 nM | ≥ 71% | 51 to 500 nM | ≥ 71% | 50% | 93% | 51 to 500 nM | 51 to 70% | 51 to 500 nM | ≥ 71% | ≤ 50 nM | ≥ 71% | ≤ 50 nM | ≥ 71% | 67% | 67% | 51 to 500 nM | 26 to 50% | 51 to 500 nM | 26 to 50% | Dmax (Brd4 (L) [13]): 100%; Dmax (Brd4 (S) [14]): 100%; Dmax at 1 µM (Brd2 [15]): 76%; Dmax at 1 µM (Brd3 [16]): 100%
CCCC(NC(=O)/C(C#N)=C/c1nc(Cl)ccc1Cl)c1ccc(OCCOCCOCCOCCOCCOCCOCCNC(=O)c2ccc(-c3ccc4c(c3)[C@H](Nc3ccc(Cl)cc3)C[C@H](C)N4C(C)=O)cc2)cc1 (some centres unmarked) [Example 05IB10] | ≤ 50 nM | 51 to 70% | 51 to 500 nM | ≥ 71% | 97% | 100% | 51 to 500 nM | 51 to 70% | 51 to 500 nM | ≥ 71% | ≤ 50 nM | ≥ 71% | ≤ 50 nM | ≥ 71% | 100% | 100% | ≤ 50 nM | ≥ 71% | 51 to 500 nM | ≥ 71% | Dmax (Brd4 (L) [13]): 100%; Dmax (Brd4 (S) [14]): 99%; Dmax at 1 µM (Brd2 [15]): 82%; Dmax at 1 µM (Brd3 [16]): 90%
CCCC(NC(=O)C(C#N)Cc1cccc(Br)n1)c1ccc(OCCOCCOCCOCCOCCOCCOCCNC(=O)c2ccc(-c3ccc4c(c3)[C@H](Nc3ccc(Cl)cc3)C[C@H](C)N4C(C)=O)cc2)cc1 (some centres unmarked) [Example 05IB12] | – | ≤ 25% | – | ≤ 25% | – | – | – | ≤ 25% | – | ≤ 25% | – | ≤ 25% | – | 26 to 50% | – | – | – | ≤ 25% | – | 26 to 50% | –
